Patent US8557998B2, “Benzylpiperizine compound” (Dainippon Sumitomo Pharma Co., Ltd, priority 2008, dated 2013)

Legend:
[1] = biological target: T1, human serotonin transporter (h-SERT) (Homo sapiens, UniProt P31645); assay: Screening test using [3H]citalopram binding for evaluating human serotonin reuptake inhibitory effect; settings: h-SERT/CHO membrane preparation, [3H]citalopram approximately 2 nM, room temperature 60 minutes; read-out: Test Example 1: h-SERT binding inhibition constant (Ki)
T1 construct: expressed in transfected cells; host or cells: CHO cells (h-SERT/CHO), Geneticin-selected
Excerpt: CHO cells containing a human serotonin transporter (h-SERT) expressed therein (h-SERT/CHO) were used in the experiment.
1-2 Receptor Binding Experiment
A smaller value of the h-SERT binding inhibition constant Ki means a higher human serotonin reuptake inhibitory effect.

CYP2D6 [2] = biological target: T2, CYP2D6 (Homo sapiens, UniProt P10635); assay: CYP2D6 inhibition screening test; assay type: in vitro ADME; settings: pooled human liver microsomes, substrate bufuralol, 37° C. 10 min, 1'-hydroxybufuralol by LC-MSMS; read-out: Test Example 3: CYP2D6 Inhibition IC50
T2 construct: Pooled of Human Liver Microsomes was purchased from Xenotech, LLC; tissue Xenotech, LLC; host or cells: pooled human liver microsomes
Procedure: CYP2D6 Inhibition Screening Test
Bufuralol was purchased from Sigma-Aldrich Corp., and Pooled of Human Liver Microsomes was purchased from Xenotech, LLC.
150 μL of Pooled Human Liver Microsomes (20 mg/ml), 12 mL of a 0.5 M potassium phosphate buffer, 1.2 mL of a 165 mM magnesium chloride solution, and 34.65 mL of distilled water were mixed.
Bufuralol was dissolved at a concentration of 2.0 mM in DMSO and then diluted 200-fold with distilled water.
3-3 Experimental Procedures
1. A 10 mM DMSO solution of a test drug was serially diluted 5-fold with DMSO for 4 serial dilutions to prepare 10, 2, 0.4, and 0.08 mM DMSO solutions.
2. Each test drug solution of the step 1. and DMSO were separately diluted 96-fold with a human liver microsome solution, and each dilution was dispensed and 80 μL of each dilution to microplates.
3. 10 μL of a substrate solution and 10 μL of a β-NADPH solution were added to the well of the step 2., followed by incubation at 37° C. for 10 min.
4. The reaction was terminated by the addition of 300 μL of methanol.
5. The reaction mixture was filtered, and LC-MSMS analysis was conducted.
3-4 Quantification and Calculation
The amount of 1′-hydroxybufuralol produced was quantified by LC-MSMS, and this amount was used as a metabolic activity of CYP2D6 for each well. The remaining activity of each sample was determined by comparison with the activity obtained from DMSO as a test drug. An IC50 value of CYP2D6 inhibition was determined from the test drug concentration and remaining activity. The IC50 value was calculated by linear interpolation between two points that span the remaining activity 50%. A larger value of IC50 of CYP2D6 inhibition means weaker CYP2D6 inhibition.

CYP2D6 [3] = biological target: T2, CYP2D6; assay: Screening test of the rate of CYP2D6 contribution in human liver microsomal metabolism; assay type: in vitro ADME; design: key to Rate of CYP2D6 Contribution indeterminable due to high stability for human microsomal metabolism: —*^): The rate of CYP2D6 contribution was indeterminable in the present test due to high stability for human microsomal metabolism; settings: 1 mg/mL human liver microsomes, 1 μM test substance, 37° C.
Procedure: Screening Test of the Rate of CYP2D6 Contribution in Human Liver Microsomal Metabolism
0.2 mL of a 50 mM potassium phosphate buffer solution (pH 7.4) containing NADPH (final concentration: 3 mM, manufactured by Oriental Yeast Co., Ltd.), 1 mg/mL human liver microsomes (manufactured by XENOTECH, LLC), and a 1 μM test substance was heated on a water bath at 37° C. for metabolic reaction. After the reaction for 15 minutes or 30 minutes, methanol was added in a volume 3 times that of the reaction solution, and the mixture was stirred to terminate the reaction. This reaction solution was centrifuged for protein precipitation. Then, the supernatant was collected and subjected to LC-MS/MS analysis. The results were analyzed as follows:
The test substance was quantified, and time-dependent change in the amount of the substance remaining was logarithmically plotted. A metabolic rate was calculated from the slope.
The ratio of the metabolic rate obtained by the addition of quinidine (final concentration: 4 μM) to the reaction solution to the metabolic rate obtained without the addition was used as the rate of contribution of enzymes other than CYP2D6, and the rate of contribution obtained by subtracting this rate of contribution of other enzymes from the total was used as the rate of CYP2D6 contribution. Specifically, it was calculated according to the equation: Rate of contribution(%)={1−(metabolic rate [with quinidine]/metabolic rate[without quinidine])}×100. A smaller value of the rate of CYP2D6 contribution means smaller CYP2D6 contribution.

[4] = biological target: T1, human serotonin transporter (h-SERT); assay: Serotonin transporter function inhibition test using [3H]5-HT; assay type: cell-based; settings: h-SERT/CHO cells, [3H]5-HT uptake approximately 10 nM, 37° C. 10 minutes; read-out: Test Example 5: h-SERT Function Inhibition Constant (Ki)
Procedure: 1-1 Cells Used and Preparation of Cell Suspension
CHO cells containing a human serotonin transporter (h-SERT) expressed therein (h-SERT/CHO) were used in the experiment. […] The collected cells were suspended in a buffer solution containing 0.1 mM CaCl2 and 1 mM MgCl2 in PBS (hereinafter, referred to as PBSCM) and stored in ice until use.
Specifically, 149 μl of the cell suspension (10×10^4 cells/well) and 1 μl of a solution of a test drug dissolved in dimethyl sulfoxide were preincubated at 37° C. for 10 minutes.

[5] = biological target: T3, human serotonin 1A receptor (h-5-HT1A) (Homo sapiens, UniProt P08908)
T3 sequence (P08908 1-422): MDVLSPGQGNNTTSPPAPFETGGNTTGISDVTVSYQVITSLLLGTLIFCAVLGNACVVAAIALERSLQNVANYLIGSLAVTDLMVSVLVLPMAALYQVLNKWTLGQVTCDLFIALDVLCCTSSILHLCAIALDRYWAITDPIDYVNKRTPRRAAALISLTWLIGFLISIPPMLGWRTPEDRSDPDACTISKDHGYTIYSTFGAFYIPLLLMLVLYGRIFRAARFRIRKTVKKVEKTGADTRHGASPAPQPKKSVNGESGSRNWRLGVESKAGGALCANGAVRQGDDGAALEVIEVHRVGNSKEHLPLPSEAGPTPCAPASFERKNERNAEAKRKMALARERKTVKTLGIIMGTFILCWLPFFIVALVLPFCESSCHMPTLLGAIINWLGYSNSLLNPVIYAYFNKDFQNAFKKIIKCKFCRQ
Procedure: The cells were cultured in F12 containing 10% FCS, 500 μg/ml Geneticin, and 100 U/ml penicillin-100 μg/ml streptomycin (all manufactured by Sigma-Aldrich Corp.) in a 5% CO2 incubator. […] Specifically, the cells were dissociated/collected using 50 mM Tris-HCl (pH=7.4). The resulting cells were homogenized using a Teflon (registered trademark) homogenizer and then centrifuged (48,000×g, 20 min, 4° C.). The pellet was resuspended in an appropriate amount of 50 mM Tris-HCl (pH=7.4) and stored at −80° C. until use. The amount of the protein in the membrane preparation was quantified using Dye Reagent Concentrate (manufactured by Bio-Rad Laboratories, Inc.) with bovine serum albumin (manufactured by Sigma-Aldrich Corp.) as a standard.
The reaction solution was reacted at room temperature for 30 minutes and then rapidly filtered by suction at a low pressure through glass fiber filter paper. The glass fiber filter paper was washed twice with 250 μl of 50 mM Tris-HCl (pH=7.4) and then added to a counting vial containing 4 ml of ACS-II (manufactured by Amersham Biosciences). Receptor binding radioactivity remaining on the filter paper was measured using a liquid scintillation counter.

T1 sequence (P31645 whole entry): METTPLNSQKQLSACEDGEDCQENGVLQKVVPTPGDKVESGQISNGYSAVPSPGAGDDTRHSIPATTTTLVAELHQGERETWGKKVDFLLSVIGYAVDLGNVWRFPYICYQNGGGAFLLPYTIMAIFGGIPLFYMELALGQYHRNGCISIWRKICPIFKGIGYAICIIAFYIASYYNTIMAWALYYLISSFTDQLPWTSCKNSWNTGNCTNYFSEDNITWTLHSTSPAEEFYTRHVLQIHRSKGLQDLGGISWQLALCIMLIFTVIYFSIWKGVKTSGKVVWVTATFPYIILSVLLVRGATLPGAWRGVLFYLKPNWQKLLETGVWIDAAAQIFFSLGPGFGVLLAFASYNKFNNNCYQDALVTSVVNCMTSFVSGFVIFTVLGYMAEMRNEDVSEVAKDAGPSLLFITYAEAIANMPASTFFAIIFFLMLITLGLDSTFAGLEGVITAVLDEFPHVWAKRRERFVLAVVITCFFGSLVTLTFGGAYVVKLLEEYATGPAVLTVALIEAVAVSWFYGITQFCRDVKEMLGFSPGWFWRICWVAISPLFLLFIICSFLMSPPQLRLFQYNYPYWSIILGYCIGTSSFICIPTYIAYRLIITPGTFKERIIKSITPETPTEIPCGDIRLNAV
T2 sequence (P10635 whole entry): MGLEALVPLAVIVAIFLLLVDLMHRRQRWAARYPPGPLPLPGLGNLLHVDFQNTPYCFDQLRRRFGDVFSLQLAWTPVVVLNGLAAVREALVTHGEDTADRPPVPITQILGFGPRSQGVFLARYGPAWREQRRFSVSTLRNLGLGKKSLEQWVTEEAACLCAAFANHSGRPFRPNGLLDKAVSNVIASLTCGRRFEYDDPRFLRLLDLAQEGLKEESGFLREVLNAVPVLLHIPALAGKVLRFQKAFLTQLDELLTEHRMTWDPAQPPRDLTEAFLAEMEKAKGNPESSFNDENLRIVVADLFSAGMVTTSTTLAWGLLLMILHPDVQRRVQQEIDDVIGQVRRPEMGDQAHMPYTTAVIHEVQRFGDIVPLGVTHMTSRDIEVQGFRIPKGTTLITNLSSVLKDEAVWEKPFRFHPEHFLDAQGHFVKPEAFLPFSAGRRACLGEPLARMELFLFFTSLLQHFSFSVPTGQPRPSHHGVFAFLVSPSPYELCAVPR

Ki [1]: 7.4 nM
IC50 (CYP2D6 [2]): 26900 nM
Rate of CYP2D6 Contribution indeterminable due to high stability for human microsomal metabolism (CYP2D6 [3]): —*^)
Ki [4]: 51 nM
Ki [5]: 8.6 nM
SMILES: O=C1CCOc2ccc(CCN3CCC(Cc4ccc(Br)c(OCCO)c4)CC3)cc21 [Example 13, 6-(2-{4-[4-Bromo-3-(2-hydroxyethoxy)benzyl]piperidin-1-yl}ethyl)-2,3-dihydro-4H-chromen-4-one]
